Reference: US10874103B2, “Antibacterial composition comprising an acetal or a long-chain alkyl hexitane ether” (TEREOS STARCH & SWEETENERS BELGIUM, priority 2014, dated 2020)

Key:
[1] = test system: L. monocytogenes (CIP 103575), E. faecalis (ATCC® 29212™) and S. aureus (ATCC® 292213™); assay: MIC microdilution, statements for all three Gram-positive strains together; assay type: cell-based; settings: listed as Sorbitan dodecyl ether
Protocol: The bacteriostatic properties of the derivatives are evaluated by measuring their minimum inhibitory concentration (MIC) on the bacteria tested. Such a measurement is made using the 96-well microplate microdilution method according to the conditions defined below.
The minimum inhibitory concentrations (MIC) are tested on Gram-positive bacterial strains according to the recommendations of the “Clinical Laboratory Standards Institute” (Clinical-Laboratory-Standards-Institute, 6th ed. Approved standard M100-S17. CLSI, Wayne, Pa., 2007).
The Gram-positive bacteria studied are as follows: L. monocytogenes (CIP 103575), E. faecalis (ATCC® 29212™) and S. aureus (ATCC® 292213™).
The cultures studied, freshly isolated (after incubation on a blood agar at 37° C. for 18 h), are taken up in sterile water (10 mL) until a 0.5 McFarland (Mc) suspension i.e. 1 to 2×10^8 CFU (bacteria)/cm^3 is obtained. The bacterial suspension was then diluted to obtain a final concentration of 5×10^5 CFU/cm^3.
Each well contains an identical quantity of Mueller-Hinton medium (a rich medium for bacterial culture) and bacteria with final 5×10^5 CFU/cm^3.
The test compounds of interest are solubilized in 2.5% m of ethanol before being diluted to different concentrations two by two.
On the multiwell plate, a first series has been planned comprising the culture medium without the test compound of interest. […]

[2] = test system: L. monocytogenes (CIP 103575), E. faecalis (ATCC® 29212™) and S. aureus (ATCC® 292213™); assay: MBC, statement for all Gram-positive strains tested together; assay type: cell-based; settings: all three strains
Protocol: To determine whether the agents tested are bactericidal, the minimum bactericidal concentration (MBC) is determined. The MBC corresponds to the concentration leaving a number of bacterial survivors of <4 log. For this, a bacterial count is run from clear wells or without bacterial residue (C≤MIC). To do this, a dilution to 1/100 was conducted with the two wells with the same concentration before seeding on a blood agar using the Spiral technique. After 24 h of incubation at 37° C., the visual count allowed determination of the minimum concentration from which there is no bacterial growth.
To determine the bactericidal effect of compounds presenting bacteriostatic properties, the wells no longer presenting turbidity were reseeded on agar.

[3] = test system: Staphylococcus Aureus strains; assay: MIC microdilution on wider panel (Example 8), Staphylococcus strains; assay type: cell-based, S. aureus
Protocol: The cultures studied, freshly isolated (after incubation on a blood agar at 37° C. for 18 h), are taken up in sterile water (10 mL) until a 0.5 McFarland (Mc) suspension i.e. at 1 to 2×10^8 CFU (bacteria)/cm^3 is obtained. The bacterial suspension was then diluted to obtain a final concentration of 1×10^6 CFU/cm^3.
Each well contains an identical quantity of Mueller-Hinton medium (a rich medium for bacterial culture) and bacteria with final 0.5×10^6 CFU/cm^3.
The test compounds of interest are solubilized in ethanol or DMSO at 25 mg/mL before being diluted to different concentrations two by two. On the multiwell plate, a first series has been planned comprising the culture medium without the test compound of interest. It corresponds to the growth control (control well). These controls serve as reference for comparing bacterial growth with that of the subsequent wells comprising different concentrations of the test compound of interest. The second series of wells comprises the mother solution for the test compound of interest for a concentration in the wells of 256 mg (7 mM). Each series of wells was diluted two by two until the last series for a final concentration of 0.25 mg/L (0.0007 mM). Each concentration is duplicated in the same plate. The plate is incubated for 18 h at 37° C. […] If there is antibacterial activity, the bacterial growth is inhibited, which means that no turbidity or bacterial residue is present.
The minimum inhibitory concentrations (MIC) are tested on Gram-positive bacterial strains according to the recommendations of the “Clinical Laboratory Standards Institute” (Clinical-Laboratory-Standards-Institute, 6th ed. Approved standard M100-S17. CLSI, Wayne, Pa., 2007). The clinical strains have been isolated in the Hospice de Lyon.
Staphylococci S. aureus: ATCC® 29213™, ATCC 25923,
Staphylococci strains Daptomycin-resistant S. aureus (ST 2015-0188), (ST 2014 1288).
The cultures studied, freshly isolated (after incubation on a blood agar at 37° C. for 18 h), are taken up in sterile water (10 mL) until a 0.5 McFarland (Mc) suspension i.e. at 10^8 CFU (bacteria)/cm^3 is obtained. The bacterial suspension was then diluted to obtain a final concentration of 10^6 CFU/cm^3.

With Dodecyl-1,4-d-sorbitan [Example 2e] the “MIC / inhibitory concentration on the bacterial strains studied” value [1] was 120 µM, the “MBC for all the Gram-positive strains tested” value [2] was 120 µM and the “Minimum inhibitory concentration (MIC) ST 2014 1288” value ([3]; Daptomycin-resistant S. aureus ST 2014 1288) was 64 µg/mL. For the same substance, the “Minimum inhibitory concentration (MIC) ST 2015 0188” value ([3]; Daptomycin-resistant S. aureus ST 2015-0188) was 64 µg/mL, the “Minimum inhibitory concentration (MIC) HT 2002-0417” value ([3]; Methicillin-resistant S. aureus HT 2002-0417) was 32 µg/mL and the “Minimum inhibitory concentration (MIC) HT 2004-0012” value ([3]; Methicillin-resistant S. aureus HT 2004-0012) was 32 µg/mL. For the same substance, the “Minimum inhibitory concentration (MIC) HT 2006-1004” value ([3]; Methicillin-resistant S. aureus HT 2006-1004) was 32 µg/mL, the “Minimum inhibitory concentration (MIC) LY 199-0053” value ([3]; Methicillin-resistant S. aureus LY 199-0053) was 32 µg/mL and the “Minimum inhibitory concentration (MIC) USA 300” value ([3]; Methicillin-resistant S. aureus Lac-Deleo USA 300) was 32 µg/mL. The “Minimum inhibitory concentration (MIC) MU 3” value ([3]; Methicillin-resistant S. aureus MU 3) was 64 µg/mL, the “Minimum inhibitory concentration (MIC) ATCC 25923” value ([3]; S. aureus ATCC 25923) was 32 µg/mL and the “Minimum inhibitory concentration (MIC) ATCC 29213” value ([3]; S. aureus ATCC 29213) was 32 µg/mL.
